Tests used:
[1] = tested on: Leukotriene C4 (LTC4) production in mouse bone marrow-derived mast cells (BMMCs); experiment: Inhibition of LTC4 production/release by IgE/DNP-HSA-stimulated BMMCs (ELISA); type: cell-based; settings: 10 μM
Experimental: (§1) (1) Experimental Animal: a 6-week-old female Balb/C mouse without specific pathogens.
(§2) (2) Extraction Process: the mouse was sacrificed by cervical dislocation. After confirming the death of the mouse, it was immersed in alcohol for 3-5 minutes. The back skin of the mouse was cut with tweezers and scissors on a clean bench. The spleen was removed and placed in a filter. The filter was placed in a petri dish containing serum-free medium. The spleen was grounded into a cell suspension having a cell concentration of 2×10^6 cells/mL. […] of lectins was added, and cell suspension was then cultured in RPMI1640 medium for 5 days. The supernatant was collected. The femur bone of the mouse was removed, and joints of the bone was cut. The bone marrow was washed into a centrifuging tube by using serum-free medium. The bone marrow containing medium was then centrifuged, and the supernatant was discarded and the pellet was red bone marrow.
(§3) (3) Cell Culture: The cells were cultured for 4 weeks with RPMI1640, 10% Gibco FBS, 20% spleen supernatant, 1% AEPS, 1% MEM, and 1% double antibody.
Principle: This experiment is based on the competitive binding of LTC4 to the LTC4-acetylcholinesterase conjugate (LTC4 tracer) to determine the amount of […]. Because the concentration of the LTC4 tracer is constant and the concentration of LTC4 is varied, the amount of LTC4 tracer bound to the LTC4 antiserum is inversely proportional to the amount of LTC4. The antibody-LTC4 complex binds to the murine monoclonal anti-rabbit IgG, while the murine monoclonal anti-rabbit IgG has previously been conjugated to the kit. After the reaction system was stabilized, the unbound reagent was washed away. Ellman's reagent (a […]) was added. […] The color depth was measured by the spectrophotometric method, and is proportional to the amount of LTC4 tracer, which is inversely proportional to the amount of LTC4.
(a) Sample Preparation: culturing mature BMMCs, adding IgE overnight, washing with PBS three times, and then spreading in 96-well plates (1×10^6 cells/well). The test compound solutions were added to plates and the plates were incubated for 1-1.5 hours, stimulating with DNP-HSA for 15 min. The solutions were then centrifuged at 3000 rpm for 3 min at 4° C., and the supernatant was collected and diluted 5-fold with RPMI 1640 to obtain sample solution.
(b) ELISA Kit Reaction: Adding reagents according to the kit instructions, reacting at 4° C. for 18 h, and washing with washing buffer. 200 μL of Ellman's reagent was added to each well, reacting for 40 min.
(c) Measurement of Absorbance: The absorbance was measured at 405 nm.

BMMCs = experiment: MTT assay, inhibition of the growth of BMMCs (cell toxicity); type: cell-based; settings: 10 μM
Experimental: as §1, §2, §3
(1) Preparation of MTT Solution: 5 mg/mL MTT solution was prepared by weighing an amount of MTT ((2-(4,5-dimethyl-2-thiazolyl)-3,5-diphenyl-2H-[…]) and dissolving MMT in PBS (solvent), and the solution was then filtered using a 0.22 μm microporous membrane. The solution was light yellow and stored at −20° C.
(2) Method: BMMCs were seeded in 96-well plates at a density of 2×10^5/mL at 100 μL per well, and the compounds of different concentrations were added. 100 μL culture medium and 100 μL PBS were used as blank control. After 7 hours, 20 μL MMT (5 mg/mL) was added to each well. The plates were then placed in an incubator (5% CO2, 37° C.) for 4 hours. After the reaction was complete, the supernatant was discarded, and 150 μL of DMSO was added to each well. After mixing, the absorbance (OD value) was measured at 490 nm using a microplate reader. Cell Viability=(ODcompounds−ODculture medium)/(ODPBS−ODculture medium)×100%

COc1ccc(C2=NOC3(C2)C(=O)OC2CC(C)=C(C(C)CCCOC(C)=O)C(OC(C)=O)C23)cc1 (centres unmarked) [Compound 3g]
Inhabitation Rate (%) [1]: 93.19%
Cell Toxicity (%) (BMMCs): 11.12%

C=C1C(=O)OC2CC(C)=C(C(C)CCCOC(C)=O)C(OC(C)=O)C12 (centres unmarked) [OABL, 1,6-O,O-diacetylbritannilatone, reference compound]
Inhabitation Rate (%) [1]: 53.24%
Cell Toxicity (%) (BMMCs): 3.46%

CC(=O)OCCCC(C)C1=C(C)CC2OC(=O)C3(CC(c4ccc(Br)cc4)=NO3)C2C1=O (centres unmarked) [Compound 4d]
Inhabitation Rate (%) [1]: 97.77%
Cell Toxicity (%) (BMMCs): −4.59%

C=C1C(=O)O[C@@H]2CC(C)=C([C@@H](C)CCCOC(C)=O)[C@H](O)[C@H]12 [ABL, 1-O-acetylbritannilatone]
Inhabitation Rate (%) [1]: 35.21%
Cell Toxicity (%) (BMMCs): 1.15%

CC(=O)OCCCC(C)C1=C(C)CC2OC(=O)C3(CC(c4ccncc4)=NO3)C2C1=O (centres unmarked) [Compound 4i]
Inhabitation Rate (%) [1]: 83.53%
Cell Toxicity (%) (BMMCs): 9.09%

CC(=O)OCCCC(C)C1=C(C)CC2OC(=O)C3(CC(c4ccccc4)=NO3)C2C1OC(C)=O (centres unmarked) [Compound 3a]
Inhabitation Rate (%) [1]: 79.15%
Cell Toxicity (%) (BMMCs): 5.98%

COc1ccc(C2=NOC3(C2)C(=O)OC2CC(C)=C(C(C)CCCOC(C)=O)C(O)C23)cc1 (centres unmarked) [Compound 2g]
Inhabitation Rate (%) [1]: 0.91%
Cell Toxicity (%) (BMMCs): 7.37%

CC(=O)OCCCC(C)C1=C(C)CC2OC(=O)C3(CC(c4ccc(O)cc4)=NO3)C2C1O (centres unmarked) [Compound 2j]
Inhabitation Rate (%) [1]: 74.36%
Cell Toxicity (%) (BMMCs): −0.9%

CC(=O)OCCCC(C)C1=C(C)CC2OC(=O)C3(CC(c4ccc(Cl)cc4)=NO3)C2C1O (centres unmarked) [Compound 2c]
Inhabitation Rate (%) [1]: 67.43%
Cell Toxicity (%) (BMMCs): 1.88%

CC(=O)OCCCC(C)C1=C(C)CC2OC(=O)C3(CC(c4ccc(Cl)cc4)=NO3)C2C1=O (centres unmarked) [Compound 4c]
Inhabitation Rate (%) [1]: 84.4%
Cell Toxicity (%) (BMMCs): 2.95%

CC(=O)OCCCC(C)C1=C(C)CC2OC(=O)C3(CC(c4ccncc4)=NO3)C2C1O (centres unmarked) [Compound 2i]
Inhabitation Rate (%) [1]: 84.84%
Cell Toxicity (%) (BMMCs): 4.26%

CC(=O)OCCCC(C)C1=C(C)CC2OC(=O)C3(CC(c4ccc(F)cc4)=NO3)C2C1=O (centres unmarked) [Compound 4b]
Inhabitation Rate (%) [1]: 32%
Cell Toxicity (%) (BMMCs): −8.44%

CC(=O)OCCCC(C)C1=C(C)CC2OC(=O)C3(CC(c4ccc([N+](=O)[O-])cc4)=NO3)C2C1O (centres unmarked) [Compound 2h]
Inhabitation Rate (%) [1]: 87.14%
Cell Toxicity (%) (BMMCs): 20.64%

CC(=O)OCCCC(C)C1=C(C)CC2OC(=O)C3(CC(c4ccccc4)=NO3)C2C1=O (centres unmarked) [Compound 4a]
Inhabitation Rate (%) [1]: 21.93%
Cell Toxicity (%) (BMMCs): 0.16%

CC(=O)OCCCC(C)C1=C(C)CC2OC(=O)C3(CC(c4ccc(Cl)cc4)=NO3)C2C1OC(C)=O (centres unmarked) [Compound 3c]
Inhabitation Rate (%) [1]: 70.16%
Cell Toxicity (%) (BMMCs): −6.22%

CC(=O)OCCCC(C)C1=C(C)CC2OC(=O)C3(CC(c4ccc(O)cc4)=NO3)C2C1OC(C)=O (centres unmarked) [Compound 3j]
Inhabitation Rate (%) [1]: 88.7%
Cell Toxicity (%) (BMMCs): 21.95%

CC(=O)OCCCC(C)C1=C(C)CC2OC(=O)C3(CC(c4ccc(C)cc4)=NO3)C2C1O (centres unmarked) [Compound 2f]
Inhabitation Rate (%) [1]: −32.88%
Cell Toxicity (%) (BMMCs): −1.06%

CC(=O)OCCCC(C)C1=C(C)CC2OC(=O)C3(CC(c4ccc(F)cc4)=NO3)C2C1O (centres unmarked) [Compound 2b]
Inhabitation Rate (%) [1]: 77.46%
Cell Toxicity (%) (BMMCs): 1.47%

CC(=O)OCCCC(C)C1=C(C)CC2OC(=O)C3(CC(c4ccc([N+](=O)[O-])cc4)=NO3)C2C1OC(C)=O (centres unmarked) [Compound 3h]
Inhabitation Rate (%) [1]: 84.4%
Cell Toxicity (%) (BMMCs): 6.63%

CC(=O)OCCCC(C)C1=C(C)CC2OC(=O)C3(CC(c4ccc(C#N)cc4)=NO3)C2C1OC(C)=O (centres unmarked) [Compound 3e]
Inhabitation Rate (%) [1]: 93.95%
Cell Toxicity (%) (BMMCs): 0.25%

CC(=O)OCCCC(C)C1=C(C)CC2OC(=O)C3(CC(c4ccc(F)cc4)=NO3)C2C1OC(C)=O (centres unmarked) [Compound 3b]
Inhabitation Rate (%) [1]: 89.01%
Cell Toxicity (%) (BMMCs): −1.97%

CC(=O)OCCCC(C)C1=C(C)CC2OC(=O)C3(CC(c4ccc([N+](=O)[O-])cc4)=NO3)C2C1=O (centres unmarked) [Compound 4h]
Inhabitation Rate (%) [1]: 92.79%
Cell Toxicity (%) (BMMCs): 5.65%

CC(=O)OCCCC(C)C1=C(C)CC2OC(=O)C3(CC(c4ccc(C)cc4)=NO3)C2C1=O (centres unmarked) [Compound 4f]
Inhabitation Rate (%) [1]: 28.77%
Cell Toxicity (%) (BMMCs): −0.66%

CC(=O)OCCCC(C)C1=C(C)CC2OC(=O)C3(CC(c4ccc(C)cc4)=NO3)C2C1OC(C)=O (centres unmarked) [Compound 3f]
Inhabitation Rate (%) [1]: −23.48%
Cell Toxicity (%) (BMMCs): 4.1%

CC(=O)OCCCC(C)C1=C(C)CC2OC(=O)C3(CC(c4ccc(Br)cc4)=NO3)C2C1O (centres unmarked) [Compound 2d]
Inhabitation Rate (%) [1]: 50.4%
Cell Toxicity (%) (BMMCs): 1.06%

CC(=O)OCCCC(C)C1=C(C)CC2OC(=O)C3(CC(c4ccncc4)=NO3)C2C1OC(C)=O (centres unmarked) [Compound 3i]
Inhabitation Rate (%) [1]: 88.7%
Cell Toxicity (%) (BMMCs): 9.58%

CC(=O)OCCCC(C)C1=C(C)CC2OC(=O)C3(CC(c4ccc(C#N)cc4)=NO3)C2C1=O (centres unmarked) [Compound 4e]
Inhabitation Rate (%) [1]: 88.22%
Cell Toxicity (%) (BMMCs): 3.19%

CC(=O)OCCCC(C)C1=C(C)CC2OC(=O)C3(CC(c4ccccc4)=NO3)C2C1O (centres unmarked) [Compound 2a]
Inhabitation Rate (%) [1]: 69.36%
Cell Toxicity (%) (BMMCs): 5.98%

CC(=O)OCCCC(C)C1=C(C)CC2OC(=O)C3(CC(c4ccc(Br)cc4)=NO3)C2C1OC(C)=O (centres unmarked) [Compound 3d]
Inhabitation Rate (%) [1]: 89.94%
Cell Toxicity (%) (BMMCs): 9.58%

COc1ccc(C2=NOC3(C2)C(=O)OC2CC(C)=C(C(C)CCCOC(C)=O)C(=O)C23)cc1 (centres unmarked) [Compound 4g]
Inhabitation Rate (%) [1]: 53.28%
Cell Toxicity (%) (BMMCs): 5.81%

CC(=O)OCCCC(C)C1=C(C)CC2OC(=O)C3(CC(c4ccc(C#N)cc4)=NO3)C2C1O (centres unmarked) [Compound 2e]
Inhabitation Rate (%) [1]: 85.49%
Cell Toxicity (%) (BMMCs): −0.66%

From patent US11028102B2, “Methods of using 1-O-acetylbritannilatone spiro aryl isoxazoline compounds” (priority 2017, dated 2021)
